According to PubChem BioAssay AID1418 (Emory University Molecular Libraries Screening Center, 2008):
Calls of active or inactive are those of the source. The rule behind the calls is not given here.

These molecules were tested against Induced myeloid leukemia cell differentiation protein Mcl-1 (Homo sapiens) (UniProt Q07820) (assay: blockers of Bid binding to Mcl-1 – biochemical, TR-FRET, dose response (AID 1418)). Conditions: Mcl-1/Bid peptide binding, TR-FRET (europium/Dy647), 2 hr.
Chain of Induced myeloid leukemia cell differentiation protein Mcl-1 (Homo sapiens) (Q07820 whole entry, looked up): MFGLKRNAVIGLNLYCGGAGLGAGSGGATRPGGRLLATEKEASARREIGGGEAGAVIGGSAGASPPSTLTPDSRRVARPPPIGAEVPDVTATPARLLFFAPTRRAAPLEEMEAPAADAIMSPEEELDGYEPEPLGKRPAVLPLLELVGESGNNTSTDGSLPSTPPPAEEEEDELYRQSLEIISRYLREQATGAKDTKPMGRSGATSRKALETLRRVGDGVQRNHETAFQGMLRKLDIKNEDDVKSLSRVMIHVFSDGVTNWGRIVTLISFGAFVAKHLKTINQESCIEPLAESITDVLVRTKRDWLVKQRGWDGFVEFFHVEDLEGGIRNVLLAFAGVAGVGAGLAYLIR

| SMILES | IC50 |
| --- | --- |
| O=[N+]([O-])c1ccc(NC(=S)NCCc2ccc(Cl)cc2)cc1 | > 54 µM (inactive) |
| CCOC(=O)Nc1ccc2c(c1)N(C(=O)OCCN(C)C)c1ccccc1CC2 | > 54 µM (inactive) |
| CC(C)(C)c1c(Cl)c(O)c(-c2ccccc2)c(=O)n1-c1ccccc1 | 0.68 µM |
| Cc1ccc(S(=O)(=O)N(C)CC(O)Cn2c3ccccc3c3ccccc32)cc1 (centres undefined) | > 54 µM (inactive) |
| O=C(O)CCCCCN1C(=O)/C(=C\c2ccc(-c3ccc(Cl)cc3)o2)SC1=S | 16.5 µM |
| O=C(O)COc1ccccc1C(Nc1ccccn1)c1cc(Cl)c2cccnc2c1O (centres undefined) | 5.42 µM |
| O=C(CC(C(=O)O)c1c[nH]c2ccccc12)c1ccccc1 (centres undefined) | > 54 µM (inactive) |
| O=C(NCc1nc2ncc(Br)cc2[nH]1)c1ccccc1 | > 54 µM (inactive) |
| CNc1ccc(Br)cc(C(=O)/C=C/c2cccc(Cl)c2Cl)c1=O | 3.46 µM |
| O=C1NC(=S)N(C2CC2)C(=O)/C1=C/c1ccc2c(c1)CCN2CCCCl | 0.66 µM |
| O=C(O)/C=C\C(=O)N1CCc2ccccc21 | > 54 µM (inactive) |
| CC1=C(C#N)C(=O)NC(=O)/C1=C\c1ccc(-c2ccc(C)cc2[N+](=O)[O-])o1 | 1.09 µM |
| Cc1nn(Cc2ccccc2)c(C)c1NC(=O)CSc1nc(-c2ccccc2)nc2c1cnn2-c1ccccc1 | 0.47 µM |
| CNNC(=O)C(=O)NNS(=O)(=O)c1ccccc1 | > 54 µM (inactive) |
| Cc1cccc(NC(=S)c2nc3ccccc3s2)c1 | > 54 µM (inactive) |
| CN(C)c1ccc(/C=c2\sc3nc(-c4ccccc4)nn3c2=O)cc1 | 5.15 µM |
| CCC(C)[C@H](NC(=O)Nc1ccccc1F)C(=O)O (some centres undefined) | > 54 µM (inactive) |
| Cc1csc(CCc2nc(C)cs2)n1 | > 54 µM (inactive) |
| CCCOc1ccc(C(=O)NCC(c2ccco2)N(C)C)cc1OC (centres undefined) | > 54 µM (inactive) |
| COc1ccccc1NC(=O)CSc1nc2ccccc2cc1Cc1ccccc1 | > 54 µM (inactive) |
| O=C(CSc1nnc(COc2cccc3cccnc23)o1)N1CCc2ccccc21 | inactive |
| C=CCc1ccc(OCCOCCOc2cccc3ccc(C)nc23)c(OC)c1 | > 54 µM (inactive) |
| O=C(CN1C(=O)COc2ccccc21)N(Cc1ccc2c(c1)OCO2)CC1CCCO1 (centres undefined) | > 54 µM (inactive) |
| Cc1nc2sc(C(c3cccs3)N3CCOCC3)c(O)n2n1 (centres undefined) | > 54 µM (inactive) |
| CN(C)S(=O)(=O)c1cccc(NC(=O)COC(=O)c2cc3ccccc3oc2=O)c1 | > 54 µM (inactive) |

| SMILES | IC50 |
| --- | --- |
| CCCOP(=O)(OCCC)C(NC(=O)c1ccccc1)=C(Cl)Cl | 0.53 µM |
| C=C(C=O)CC1CC(O)[C@]2(C)OC3CC4OC5C[C@]6(C)O[C@]7(C)CCC8OC9C[C@]%10(C)OC%11C(C)=CC(=O)OC%11CC%10OC9C[C@@H](C)C8OC7CC6O[C@]5(C)CC5OC5C4OC3CC2O1 (some centres undefined) | > 54 µM (inactive) |
| COC(=O)c1c(C)[nH]c(C)c1C(C)=O | 0.54 µM |
| CCN1C(=O)/C(=c2\s/c(=C3\Sc4ccccc4N3C)c(=O)n2C)N(C)C1=S | inactive |
| CCc1ccc(NC(=S)NC2CC3CCC(C2)N3Cc2ccco2)cc1 (centres undefined) | > 54 µM (inactive) |
| O=C(O)c1ccc(N2C(=O)/C(=C/c3ccc(-c4ccc([N+](=O)[O-])cc4)o3)C=C2c2ccccc2)cc1 | 1.42 µM |
| O=C(c1ccco1)N1C(=O)c2cccc3c(S(=O)(=O)N4CCCC4)ccc1c23 | > 54 µM (inactive) |
| COc1ccc2nc(NC(=O)c3ccc(-c4cccc([N+](=O)[O-])c4)o3)sc2c1 | 0.81 µM |
| Cc1cccc(N=C2NC(=O)/C(=C/C=C/c3ccco3)S2)c1C | > 54 µM (inactive) |
| CC(C)C1(C)N=C(c2ncccc2C(=O)O)NC1=O (centres undefined) | > 54 µM (inactive) |
| CCOC(=O)c1c(C)oc2c1c(C(c1ccncc1)N1CCOCC1)c(O)c1ccccc12 (centres undefined) | 0.87 µM |
| COc1ccc(-c2csc(NC(=S)NC(=O)/C=C/c3ccco3)n2)cc1OC | > 54 µM (inactive) |
| O=C(CCCN1C(=O)c2ccccc2C1=O)Nc1ccccc1 | > 54 µM (inactive) |
| Nc1ccc(N)c(C(=O)O)c1 | 28.7 µM |
| N#Cc1ccc(CO/N=C/c2ccccc2)cc1 | > 54 µM (inactive) |
| O=c1c2ccccc2nc2n1CCC2 | 0.52 µM |
| COc1cc(OC)cc(C(=O)N2CCN(Cc3ccccc3C(F)(F)F)CC2)c1 | inactive |
| Cc1nc2c(c(=O)n1CCC1=CCCCC1)c1nc3ccccc3nc1n2/N=C/c1ccco1 | > 54 µM (inactive) |
| COc1cc(/C=N/NC(=O)c2ccc(CN3c4cccc5cccc(c45)S3(=O)=O)cc2)cc(OC)c1O | 1.41 µM |
| Nc1nnc(SCC(=O)N2CCN(c3ccccc3)CC2)n1-c1ccccc1 | > 54 µM (inactive) |
| NC(=S)n1[nH]c(-c2ccc([N+](=O)[O-])cc2)c(N=Nc2ccccc2[N+](=O)[O-])c1=O | 3.26 µM |
| COc1ccc2c(=O)c3c(=O)n(CCc4ccccc4)c(C(C)C)nc3oc2c1 | > 54 µM (inactive) |
| Cc1ccc(NC(=O)CN2C(=O)/C(=C3\SC(=S)N(C4CCS(=O)(=O)C4)C3=O)c3ccccc32)cc1 (centres undefined) | 0.54 µM |
| CC1(C)Oc2ccc3ccc(=O)oc3c2C[C@H]1O | > 54 µM (inactive) |
